Reference: ChEMBL document CHEMBL5154881, “Discovery of First-in-Class TAK1-MKK3 Protein-Protein Interaction (PPI) Inhibitor (R)-STU104 for the Treatment of Ulcerative Colitis through Modulating TNF-α Production” (J Med Chem, 2022)
pIC50: −log10 of the molar value.

Assays:
[1] = MRT (0 to infinity) in 12 hr starved C57 mouse at 30 mg/kg, po measured for 0.083 to 24 hrs post-dose by LC-MS-MS analysis; format: ADME, organism-based; settings: in vivo, time 0.083-24 hrs
[2] = Apparent volume of distribution in 12 hr starved C57 mouse at 5 mg/kg, iv measured for 0.083 to 24 hrs post-dose by LC-MS-MS analysis; format: ADME, organism-based; settings: in vivo, time 0.083-24 hrs, read-out: Vz
Mus musculus [3] = experiment: Anti-ulcerative colitis activity in IL-10-/- C57BL/6 mouse model of ulcerative colitis assessed as body weight recovery ratio at 10 mg/kg, IG via gavage for 8 weeks and measured everyday relative to control; format: functional
[4] = n-Octanol/water partition coefficient, logP of the compound incubated for 24 hrs by HPLC analysis; format: physicochemical
Mus musculus [5] = experiment: Anti-ulcerative colitis activity against DSS-induced ulcerative colitis C57BL/6 mouse model assessed as reduction in DAI recovery score ratio at 3 mg/kg, IG via gavage administered for 7 days and measured everyday relative to control; format: functional; design: scale not given: the % may be the effect or the level left; settings: time 7 day
P-gp (human) = experiment: Apparent permeability in dog MDCK-MDR1 cells transfected with human P-gp; format: ADME, cell-based, Canis lupus familiaris
[6] = target: T1, Dual specificity mitogen-activated protein kinase kinase 3 (Mus musculus) (UniProt O09110); experiment: Binding affinity to MKK3 in mouse RAW264.7 cells assessed as increase in thermal stability at 47 degC incubated for 24 hrs by CETSA; format: cell-based; settings: dose 1-64 µM, DDE = dose-dependent effect
T1 sequence (whole entry): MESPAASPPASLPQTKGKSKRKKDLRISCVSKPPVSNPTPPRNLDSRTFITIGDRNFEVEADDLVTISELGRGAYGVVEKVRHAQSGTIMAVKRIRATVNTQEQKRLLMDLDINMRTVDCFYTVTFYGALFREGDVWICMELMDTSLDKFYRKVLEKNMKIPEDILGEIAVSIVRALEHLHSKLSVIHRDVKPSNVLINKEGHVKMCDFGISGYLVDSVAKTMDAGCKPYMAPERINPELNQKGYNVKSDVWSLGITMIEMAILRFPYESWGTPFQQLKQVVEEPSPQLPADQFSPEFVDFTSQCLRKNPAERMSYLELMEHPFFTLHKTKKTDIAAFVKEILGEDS

Mus musculus [7] = experiment: Antiinflammatory activity against IL-10-/- C57BL/6 mouse model of ulcerative colitis assessed as inhibition ratio of IL-6 protein expression at 1 mg/kg, IG via gavage and measured after 8 weeks by ELISA relative to control; format: functional; design: scale not given: the % may be the effect or the level left
RAW264.7 = experiment: Inhibition of LPS-induced TNFalpha production in mouse RAW264.7 cells preincubated for 2 hrs followed by LPS treatment for 24 hrs by RT-qPCR analysis; format: functional, cell-based
Mus musculus [8] = experiment: Antiinflammatory activity against IL-10-/- C57BL/6 mouse model of ulcerative colitis assessed as inhibition ratio of TNF-alpha mRNA expression in colon tissue at 1 mg/kg, IG via gavage and measured after 8 weeks by RT-qPCR analysis relative to control; format: functional; design: scale not given: the % may be the effect or the level left
[9] = target: T2, Dual specificity mitogen-activated protein kinase kinase 3 (Homo sapiens) (UniProt P46734); experiment: Inhibition of human MMK3 at 50 uM using SAPK2a as substrate incubated for 120 mins in presence of [gamma-33P]-ATP by scintillation counting method relative to control
T2 sequence (whole entry): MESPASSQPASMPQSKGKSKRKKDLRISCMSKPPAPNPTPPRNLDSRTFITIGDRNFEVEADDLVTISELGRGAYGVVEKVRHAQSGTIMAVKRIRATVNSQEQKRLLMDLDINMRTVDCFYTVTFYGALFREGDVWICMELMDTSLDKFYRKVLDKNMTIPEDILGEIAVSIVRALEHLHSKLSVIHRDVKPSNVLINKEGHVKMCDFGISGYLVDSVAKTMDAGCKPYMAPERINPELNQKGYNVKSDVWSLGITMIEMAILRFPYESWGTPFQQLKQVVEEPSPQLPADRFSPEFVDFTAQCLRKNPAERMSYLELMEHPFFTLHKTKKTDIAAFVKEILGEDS

Mus musculus [10] = experiment: Anti-ulcerative colitis activity in IL-10-/- C57BL/6 mouse model of ulcerative colitis assessed as colon length recovery ratio at 10 mg/kg, IG via gavage for 8 weeks relative to control; format: functional
[11] = Inhibition of MKK3-p38-elF4E signaling pathway in mouse RAW264.7 cells assessed as inhibition of LPS-induced MKK3 phosphorylation; format: cell-based
Mus musculus [12] = experiment: Anti-ulcerative colitis activity against DSS-induced ulcerative colitis C57BL/6 mouse model assessed as reduction in DAI recovery score ratio at 1 mg/kg, IG via gavage administered for 7 days and measured everyday relative to control; format: functional; design: scale not given: the % may be the effect or the level left; settings: time 7 day
[13] = Toxicity in C57 mouse assessed as kidney damage at 50 to 500 mg/kg, po administered daily for 14 days; format: organism-based; settings: in vivo, 336 h, dose 50-500 mg/kg, time 14 day
Mus musculus [14] = experiment: Antiinflammatory activity against IL-10-/- C57BL/6 mouse model of ulcerative colitis assessed as inhibition ratio of IL-6 mRNA expression in colon tissue at 1 mg/kg, IG via gavage and measured after 8 weeks by RT-qPCR analysis relative to control; format: functional; design: scale not given: the % may be the effect or the level left
Mus musculus [15] = experiment: Antiinflammatory activity against IL-10-/- C57BL/6 mouse model of ulcerative colitis assessed as inhibition ratio of IL-1beta mRNA expression in colon tissue at 3 mg/kg, IG via gavage and measured after 8 weeks by RT-qPCR analysis relative to control; format: functional; design: scale not given: the % may be the effect or the level left
[16] = Tmax in 12 hr starved C57 mouse at 30 mg/kg, po measured for 0.083 to 24 hrs post-dose by LC-MS-MS analysis; format: ADME, organism-based; settings: in vivo, time 0.083-24 hrs
Mus musculus [17] = experiment: Antiinflammatory activity against DSS-induced C57BL/6 mouse model of acute ulcerative colitis assessed as inhibition ratio of TNF-alpha protein expression at 1 mg/kg, IG via gavage measured after 7 days by ELISA relative to control; format: functional; design: scale not given: the % may be the effect or the level left; settings: time 7 day
Mus musculus [18] = experiment: Antiinflammatory activity against IL-10-/- C57BL/6 mouse model of ulcerative colitis assessed as inhibition ratio of IL-23 protein expression at 10 mg/kg, IG via gavage and measured after 8 weeks by ELISA relative to control; format: functional; design: scale not given: the % may be the effect or the level left
Mus musculus [19] = experiment: Antiinflammatory activity against DSS-induced C57BL/6 mouse model of acute ulcerative colitis assessed as inhibition of TNF-alpha mRNA expression in colon tissue administered intragastrically via gavage measured after 7 days by RT-qPCR analysis; format: functional, organism-based; settings: route ig, time 7.0 day, DDE = dose-dependent effect
Mus musculus [20] = experiment: Antiinflammatory activity against IL-10-/- C57BL/6 mouse model of ulcerative colitis assessed as inhibition ratio of TNF-alpha protein expression at 1 mg/kg, IG via gavage and measured after 8 weeks by ELISA relative to control; format: functional; design: scale not given: the % may be the effect or the level left
Mus musculus [21] = experiment: Antiinflammatory activity against DSS-induced C57BL/6 mouse model of acute ulcerative colitis assessed as inhibition ratio of IL-23 protein expression at 3 mg/kg, IG via gavage measured after 7 days by ELISA relative to control; format: functional; design: scale not given: the % may be the effect or the level left; settings: time 7 day
[22] = Apparent clearance during terminal phase in 12 hr starved C57 mouse at 5 mg/kg, iv measured for 0.083 to 24 hrs post-dose by LC-MS-MS analysis; format: ADME, organism-based; settings: in vivo, time 0.083-24 hrs

## COc1ccc([C@H]2CC(=O)c3cc(OC)cc(OC)c32)cc1
[1]
  MRT inf: 12.5 h
[2]
  Vd: 7.76 L/kg
Mus musculus [3]
  Activity: 19.4%
[4]
  logP at 24 h: 2.01
Mus musculus [5]
  Activity: 40%
P-gp (human)
  Papp: 23.3 ×10⁻⁶ cm/s
[6]
  Activity: Dde
Mus musculus [7]
  Activity: 31.4%
RAW264.7
  pIC50: 6.24
Mus musculus [8]
  Activity: 24.7%
[9]
  inhibition: < 10%
Mus musculus [10]
  Activity: 41.2%
[11]
  pIC50: 5.40
Mus musculus [12]
  Activity: 20%
[13]
  Activity: Non-Toxic
Mus musculus [14]
  Activity: 26.3%
Mus musculus [15]
  Activity: 36.1%
[16]
  Tmax: 4.98 min
Mus musculus [17]
  Activity: 32.9%
Mus musculus [18]
  Activity: 64.4%
Mus musculus [19]
  Activity: Dde
Mus musculus [20]
  Activity: 40.2%
Mus musculus [21]
  Activity: 51.6%
[22]
  CLz/F: 9.67 mL/min/kg
